Experimental data from US20250034216A1, “STEREOSELECTIVE COVALENT LIGANDS FOR ONCOGENIC AND IMMUNOLOGICAL PROTEINS” (The Scripps Research Institute, priority 2021, published 2025).
One block for each compound: values may come before it.

Legend:
[1] = target: T1, recombinant FLAG-PSME1 WT or C22A (Homo sapiens, UniProt Q06323); test: SEC analysis by western blot; assay type: cell-based; conditions: 22Rv1 cells expressing FLAG-PSME1 WT, 10 μM, 3 h
T1 construct: FLAG; expressed in transfected cells; host or cells: 22Rv1 pLenti3.3/TR (tetracycline-induced)
T1 sequence (Q06323 whole entry, stated change not applied): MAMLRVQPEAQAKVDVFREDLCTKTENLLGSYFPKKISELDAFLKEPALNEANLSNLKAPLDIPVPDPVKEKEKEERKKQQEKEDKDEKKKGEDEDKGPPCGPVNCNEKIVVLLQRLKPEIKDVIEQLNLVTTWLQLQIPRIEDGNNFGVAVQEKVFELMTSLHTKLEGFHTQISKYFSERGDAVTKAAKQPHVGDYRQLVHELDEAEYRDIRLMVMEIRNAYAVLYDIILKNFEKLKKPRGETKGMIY
Method: (§1) For experiments using transiently overexpressed constructs (FLAG-PSME1 WT/C22A, HA-ACAT1 WT/C126A), Stable clonal 22Rv1 pLenti3.3/TR were transfected using polyethylenimine and treated with tetracycline ([…]) for 48 h prior to treatment with electrophilic probes.
(§2) Cells were lysed and fractioned by SEC. After acetone precipitation and resuspension, 4× gel loading buffer was added to eluates, and proteins were resolved using SDS-PAGE (4-20% acrylamide, Tris-glycine gel), and transferred to a nitrocellulose membrane. The membrane was blocked with 5% milk in Tris-buffered saline (20 mM Tris-HCl 7.6, 150 mM NaCl) with 0.1% tween (TBST) and incubated with primary antibody overnight. After TBST wash (3 times), the membrane was incubated with secondary antibody, washed with TBST again, developed with ECL western blotting detection reagents, and recorded on a Bio-Rad ChemiDoc MP. Relative band intensities were analyzed using ImageJ.

[2] = target: T2, recombinant FLAG-PSME1 WT or C22A (Homo sapiens, UniProt Q06323, C22A); test: SEC analysis by western blot; assay type: cell-based; conditions: 22Rv1 cells expressing FLAG-PSME1 C22A, 10 μM, 3 h
T2 construct: FLAG; expressed in transfected cells; host or cells: 22Rv1 pLenti3.3/TR (tetracycline-induced)
T2 sequence (Q06323 whole entry C22A): as the sequence (Q06323 whole entry, stated change not applied) above, with C22A counted along it
Method: as §1, §2

SF3B1 (~150 kDa protein) = target: T3, SF3B1 (~150 kDa protein) (Homo sapiens, UniProt O75533+Q7RTV0); test: Gel-based ABPP for SF3B1 cysteine engagement; assay type: binding; conditions: 22Rv1 cells, 24 h pre-treatment (1 μM WX-02-23/WX-02-43, 10 nM pladienolide B)
T3 construct: Cysteine engagement data from 22Rv1 cells treated; endogenous in cells; host or cells: 22Rv1
T3 sequence (O75533 whole entry): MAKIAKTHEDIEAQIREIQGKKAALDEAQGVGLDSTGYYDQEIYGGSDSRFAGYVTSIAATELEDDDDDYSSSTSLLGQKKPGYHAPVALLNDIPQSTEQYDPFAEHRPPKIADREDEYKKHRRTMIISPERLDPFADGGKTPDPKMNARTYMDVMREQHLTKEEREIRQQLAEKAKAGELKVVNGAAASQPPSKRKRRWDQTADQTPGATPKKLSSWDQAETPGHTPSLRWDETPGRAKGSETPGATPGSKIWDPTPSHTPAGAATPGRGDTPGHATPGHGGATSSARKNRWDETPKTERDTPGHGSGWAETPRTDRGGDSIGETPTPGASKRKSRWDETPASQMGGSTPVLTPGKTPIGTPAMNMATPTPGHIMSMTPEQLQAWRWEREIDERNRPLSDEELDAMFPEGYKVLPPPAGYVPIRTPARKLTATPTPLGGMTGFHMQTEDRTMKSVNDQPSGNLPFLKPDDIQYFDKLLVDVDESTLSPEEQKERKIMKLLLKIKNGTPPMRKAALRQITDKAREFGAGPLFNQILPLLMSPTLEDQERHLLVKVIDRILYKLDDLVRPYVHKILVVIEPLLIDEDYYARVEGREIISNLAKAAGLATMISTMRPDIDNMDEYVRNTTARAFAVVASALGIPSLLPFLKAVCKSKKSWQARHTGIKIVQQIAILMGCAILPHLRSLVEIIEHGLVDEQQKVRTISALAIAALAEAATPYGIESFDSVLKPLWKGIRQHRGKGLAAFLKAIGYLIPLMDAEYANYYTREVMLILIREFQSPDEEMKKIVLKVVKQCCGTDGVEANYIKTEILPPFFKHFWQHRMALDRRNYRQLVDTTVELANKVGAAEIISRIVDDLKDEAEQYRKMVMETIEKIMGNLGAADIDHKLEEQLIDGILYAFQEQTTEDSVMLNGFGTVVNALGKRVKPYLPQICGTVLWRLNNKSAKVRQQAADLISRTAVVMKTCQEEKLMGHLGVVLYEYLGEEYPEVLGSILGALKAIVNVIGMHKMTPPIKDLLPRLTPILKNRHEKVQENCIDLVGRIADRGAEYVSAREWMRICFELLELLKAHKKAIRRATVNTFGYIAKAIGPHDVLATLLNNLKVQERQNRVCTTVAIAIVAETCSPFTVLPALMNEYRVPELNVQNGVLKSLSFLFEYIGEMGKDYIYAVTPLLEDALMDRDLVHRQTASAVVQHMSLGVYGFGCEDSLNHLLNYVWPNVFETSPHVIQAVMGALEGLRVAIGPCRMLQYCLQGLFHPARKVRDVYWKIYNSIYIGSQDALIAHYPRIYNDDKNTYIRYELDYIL
T3 sequence (Q7RTV0 whole entry): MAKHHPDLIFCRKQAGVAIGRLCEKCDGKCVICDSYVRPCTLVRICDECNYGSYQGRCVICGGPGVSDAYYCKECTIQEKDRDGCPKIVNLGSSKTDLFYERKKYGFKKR
T3 sequence (Q15393 whole entry partner): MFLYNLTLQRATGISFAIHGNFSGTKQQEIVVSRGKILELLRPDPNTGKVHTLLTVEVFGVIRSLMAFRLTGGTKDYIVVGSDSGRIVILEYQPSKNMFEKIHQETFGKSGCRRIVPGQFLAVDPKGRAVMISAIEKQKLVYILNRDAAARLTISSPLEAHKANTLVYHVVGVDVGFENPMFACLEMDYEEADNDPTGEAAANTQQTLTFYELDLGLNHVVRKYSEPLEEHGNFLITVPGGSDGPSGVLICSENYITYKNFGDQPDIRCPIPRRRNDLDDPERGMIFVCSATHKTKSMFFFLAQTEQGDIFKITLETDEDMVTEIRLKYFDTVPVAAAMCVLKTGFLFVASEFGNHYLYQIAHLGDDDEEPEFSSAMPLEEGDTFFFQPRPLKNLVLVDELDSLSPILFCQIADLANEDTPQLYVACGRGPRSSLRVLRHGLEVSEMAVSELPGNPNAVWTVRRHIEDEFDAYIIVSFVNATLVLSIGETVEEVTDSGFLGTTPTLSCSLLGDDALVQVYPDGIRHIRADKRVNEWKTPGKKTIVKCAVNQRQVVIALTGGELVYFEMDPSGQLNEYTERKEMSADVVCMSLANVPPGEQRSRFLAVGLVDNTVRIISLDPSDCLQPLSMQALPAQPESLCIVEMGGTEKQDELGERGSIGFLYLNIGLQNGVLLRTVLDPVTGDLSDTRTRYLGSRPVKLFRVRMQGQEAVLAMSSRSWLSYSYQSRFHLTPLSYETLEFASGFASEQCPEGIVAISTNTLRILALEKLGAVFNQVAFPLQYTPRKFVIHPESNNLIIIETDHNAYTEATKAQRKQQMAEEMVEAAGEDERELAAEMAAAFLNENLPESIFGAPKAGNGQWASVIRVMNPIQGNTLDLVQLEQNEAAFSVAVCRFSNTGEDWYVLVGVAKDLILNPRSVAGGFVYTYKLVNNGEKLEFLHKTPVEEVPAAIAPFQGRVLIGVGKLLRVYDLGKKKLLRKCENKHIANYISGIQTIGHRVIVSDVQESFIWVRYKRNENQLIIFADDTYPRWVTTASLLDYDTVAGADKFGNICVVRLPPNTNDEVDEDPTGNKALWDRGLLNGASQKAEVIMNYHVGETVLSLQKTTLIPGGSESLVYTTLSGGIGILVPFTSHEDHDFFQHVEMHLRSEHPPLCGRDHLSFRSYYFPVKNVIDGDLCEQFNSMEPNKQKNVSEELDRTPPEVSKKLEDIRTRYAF
T3 sequence (Q9BWJ5 whole entry partner): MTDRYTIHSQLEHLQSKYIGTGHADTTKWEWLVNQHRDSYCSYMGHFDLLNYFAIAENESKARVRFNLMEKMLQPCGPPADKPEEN
Method: 22Rv1 cells were treated with indicated compounds for 24 h, chased with click probe for 1 h in situ, harvested and lysed in PBS with protease inhibitors (cOmplete), and then normalized to 2.0 mg/mL. Reagents for the CuAAC click reaction were pre-mixed prior to addition to the samples (3 μL of click reaction mix for 25 μL of lysate). After 1 hour of click labeling, 4×SDS running buffer was added to samples, which were then analyzed by SDS-PAGE.

[3] = tested on: SF3B1 interacting proteins; test: SF3B1 co-immunoprecipitation-MS; assay type: cell-based, human; conditions: HEK293T cells, 5 μM WX-02-23 or 10 nM pladienolide B, 3 h
Method: HEK293T cells were treated in situ with DMSO, 5 μM of WX-02-23/WX-02-43, or 10 nM pladienolide B for 3 hours. Cells were harvested, washed with ice-cold PBS, and lysed in ColP lysis buffer (0.5% NP-40, 100 mM EPPS, 150 mM NaCl, cOmplete protease inhibitor). Lysates centrifuged at 16,000 g for 3 minutes, normalized to 2.0 mg/mL and 500 μL of each lysate was aliquoted to a clean eppendorf tube.
Lysates were incubated with 5 μL of anti-IgG or anti-SF3B1 (CST) for 2 hours at 4 C, followed by 1 hour with 25 μL of protein-A agarose beads. Bead were washed twice with ColP lysis buffer, and then twice with 100 mM EPPS, followed by elution with 8 M urea in EPPS at 65 C for 10 min. […] Samples were then trypsinized at 37 C overnight (2 ug of trypsin per sample), then TMT labeled and desalted.

[4] = target: T4, recombinant FLAG-PSME1 (PSME1_C22) (Homo sapiens, UniProt Q06323); test: Gel-based ABPP for PSME1 cysteine engagement; assay type: binding; conditions: HEK293T lysates expressing FLAG-PSME1, in vitro, then 2.5 μM MY-11B 30 min; read-out: IC50 for engaging PSME1_C22 (competition against MY-11B labeling)
T4 construct: FLAG (C); expressed in transfected cells; host or cells: HEK293T (lysate treated in vitro)
T4 sequence (Q06323 whole entry): as the sequence (Q06323 whole entry, stated change not applied) above
Method: C-terminally FLAG-tagged PSME1 WT or C22A were transiently expressed in HEK293T cells, harvested 48 hours later, then cells were divided into aliquots, flash frozen and stored at −80 C. On the day of the experiment, an aliquot of cells were thawed, lysed by sonication in ice-cold PBS supplemented with cOmplete protease inhibitors (1 tablet/10 mL of PBS). normalized to 2.0 mg/mL, and divided into 25 μL aliquots. 1 μL of DMSO or compound (25× stock) was incubated with lysates for 1.5 hours at RT, followed by incubation with 1 μL of 62.5 μM MY-11B click probe (final concentration […]) for an additional 30 minutes. Reagents for the CuAAC click reaction were pre-mixed prior to addition to the samples. After 1 hour of click labeling, 4×SDS running buffer was added to samples, which were then analyzed by SDS-PAGE. ImageJ was used to quantify rhodamine band intensities, and GraphPad PRISM Version 9.0.0 was used to generate IC50 curves (four-parameter variable slope least squares regression).

- SEC size shift of recombinant WT-PSME1 [1]: clear size shift
- SEC size shift of recombinant PSME1 C22A mutant [2]: unaffected
SMILES: C=CC(=O)N1C[C@H](c2ccc(Br)cc2)[C@@H]1C(=O)Nc1cccc2cccnc12 [MY-1B, (2R,3S)-1-acryloyl-3-(4-bromophenyl)-N-(quinolin-8-yl)azetidine-2-carboxamide]

- blockade of WX-01-10 labeling of the 150 kDa protein (SF3B1 (~150 kDa protein)): blocked
SMILES: C=CC(=O)N1[C@H](c2ccc3c(c2)OCO3)c2[nH]c3ccccc3c2C[C@H]1C(=O)N1CCOCC1 [WX-02-23, 1-((1R,3S)-1-(benzo[d][1,3]dioxol-S-yl)-3-(morpholine-4-carbonyl)-1,3,4,9-tetrahydro-2H-pyrido [3,4-b]indol-2-yl)prop-2-en-1-one]
- SF3B1 interactions (DDX42 association) [3]: much greater extent

- IC50 [4]: ~400 nM
SMILES: CC#CC(=O)N1C[C@H](c2ccc(Br)cc2)[C@@H]1C(=O)Nc1cccc2cccnc12 [MY-45B, (2R,3S)-3-(4-bromophenyl)-1-(but-2-ynoyl)-N-(quinolin-8-yl)azetidine-2-carboxamide]
